Measured values taken from patent publication EP4582418A1, “CRYSTALLINE FORM OF QUINOLINE DERIVATIVE INHIBITOR, PREPARATION METHOD THEREFOR AND USE THEREOF” (TransThera Sciences (Nanjing), Inc., priority 2022, dated 2024).

How the values were obtained:
[1] = Stability test under influencing factors (high temperature, high humidity, illumination); format: physicochemical; conditions: for changes in the appearance and purity: left to stand under conditions of the influencing factors for 30 days
Experimental: Test substances: the crystal forms I, II, III, and IV of the methanesulfonate of the compound of formula (I) of the present disclosure.
Methodology: Appropriate amounts of samples of the crystal forms I, II, III, and IV of the methanesulfonate of the compound of formula (I) were separately left to stand open under the conditions of a high temperature (60 °C), a high humidity (RH 92.5%), and illumination (4500±500 Lux); sampling was performed on days 5, 10, and 30 to investigate changes in the appearance, purity, and crystal form of the samples.

[2] = Solubility in FaSSIF (pH 6.5) and FeSSIF (pH 5.0) buffer solutions; format: physicochemical; conditions: for 24-hour solubility in buffer solutions with different pH values pH6.5: FaSSIF (pH 6.5); for 24-hour solubility in buffer solutions with different pH values pH6.5 / 24-hour solubility in buffer solutions with different pH values pH5.0: 37 °C, shaken 24 h; for 24-hour solubility in buffer solutions with different pH values pH5.0: FeSSIF (pH 5.0); for solubility compared with the compound of formula (I): test solutions at pH 5.0 and pH 6.5
Experimental: Test substances: the crystal forms I, II, III, and IV of the methanesulfonate of the compound of formula (I).
• 1) 0.42 g of NaOH, 3.44 g of anhydrous NaH2PO4, and 6.19 g of NaCl were dissolved in about 0.9 L of pure water; • 2) the pH was adjusted to 6.5 using 1 N NaOH or 1 N HCl, and the buffer solution was supplemented to the volume of 1 L with pure water at room temperature; • 3) 2.24 g of FaSSIF powder was added to about 0.5 L of the buffer solution, and the mixture was stirred until the powder was completely dissolved; the resulting solution was supplemented to the volume of 1 L with the buffer solution at room temperature, and after being left to stand for 2 h, it was ready for use.
• 1) 4.04 g of NaOH, 8.65 g of glacial acetic acid, and 11.87 g of NaCl were dissolved in about 0.9 L of pure water; • 2) the pH was adjusted to 5.0 using 1 N NaOH or 1 N HCl, and the buffer solution was supplemented to the volume of 1 L with pure water at room temperature; • 3) 11.2 g of FeSSIF powder was added to about 0.5 L of the buffer solution, and the mixture was stirred until the powder was completely dissolved; the resulting solution was supplemented to the volume of 1 L with the buffer solution at room temperature, and after being left to stand for 2 h, it was ready for use.
An appropriate amount of each test substance was placed into separate 10 mL PE tubes, and FaSSIF (pH 6.5) buffer solution and FeSSIF (pH 5.0) buffer solution, each 10 mL, were added into the tubes, respectively. The tubes were then placed in a constant temperature water bath shaker and shaken at 37 °C for 24 h. After 24 h, samples were collected and centrifuged. The supernatants were diluted, and the solubility of the supernatants was measured.

[3] = PK evaluation of crystal forms in rats; format: in vivo; conditions: SD rats, PO 60 mg/kg
Experimental: The experimental crystal forms I and II of the methanesulfonate of the compound of formula (I) were each prepared into a suspension solution with 0.5% HPMC. The compound solutions were intragastrically administered to SD rats at a dose of 60 mg/kg. Blood samples were collected at time points of 15 min, 30 min, 1 h, 2 h, 4 h, 6 h, 8 h, 24 h, 48 h, 72 h, and 96 h after administration.
The animals were fixed, with tails warmed in a water bath 10 min before each sampling time point. About 100 µL of blood was collected via the tail vein, and the blood samples were collected in anticoagulation tubes containing EDTA-K2. The blood samples were then centrifuged at 8,000 rpm for 6 min at 4 °C to give plasma samples. The plasma samples were prepared within 30 min after blood collection. The plasma samples were stored in a refrigerator at -80 °C before the test.
The sample to be tested was taken out from the -80 °C refrigerator, naturally thawed at room temperature, and vortexed for 5 min. 20 µL of plasma sample was precisely pipetted to a 1.5 mL centrifuge tube, and 200 µL of internal standard working solution (a solution of tolbutamide in methanol, 100 ng/mL) was added. The resulting mixture was thoroughly mixed, vortexed for 5 min, and centrifuged at 12,000 rpm for 5 min. 50 µL of supernatant was precisely pipetted to a 96-well plate pre-loaded with 150 µL of water per well, and the resulting mixture was vortexed for 5 min and then used for LC-MS/MS analysis.
The concentrations of the test samples were calculated by Analyst 1.6.3 from AB Sciex. Parameters such as mean, standard deviation, and coefficient of variation (excluding those output directly by Analyst 1.6.3) were calculated by Microsoft Excel. PK parameters were calculated by Pharsight Phoenix 6.1 software NCA (Tmax was in median).

[4] = Left to stand open at 60 °C for 5 days
[5] = Left to stand open at 60 °C for 10 days
[6] = Left to stand open at 60 °C for 30 days
[7] = Left to stand open at RH 92.5% for 5 days
[8] = Left to stand open at RH 92.5% for 10 days
[9] = Left to stand open at RH 92.5% for 30 days
[10] = Left to stand open under illumination (4500±500 Lux) for 5 days
[11] = Left to stand open under illumination (4500±500 Lux) for 10 days
[12] = Left to stand open under illumination (4500±500 Lux) for 30 days

| Structure (SMILES) | Appearance ([1]; 0 days) | Purity ([1]; 0 days) | Appearance [1, 4] | Purity [1, 4] | Appearance [1, 5] | Purity [1, 5] | Appearance [1, 6] | Purity [1, 6] | Appearance [1, 7] | Purity [1, 7] | Appearance [1, 8] | Purity [1, 8] | Appearance [1, 9] | Purity [1, 9] | Appearance [1, 10] | Purity [1, 10] | Appearance [1, 11] | Purity [1, 11] | 24-hour solubility in buffer solutions with different pH values pH6.5 [2] | 24-hour solubility in buffer solutions with different pH values pH5.0 [2] | further results |
| --- | --- | --- | --- | --- | --- | --- | --- | --- | --- | --- | --- | --- | --- | --- | --- | --- | --- | --- | --- | --- | --- |
| COc1cc2nccc(Oc3ccc(NC(=O)c4nn(C(C)C)cc(-c5ccc(F)cc5)c4=O)nc3)c2cc1OC [Crystal form III, N-(5-((6,7-dimethoxyquinolin-4-yl)oxy)pyridin-2-yl)-5-(4-fluorophenyl)-1-isopropyl-4-oxo-1,4-dihydropyridazine-3-carboxamide] | White or off-white solid | 99.90% | White or off-white solid | 99.90% | White or off-white solid | 99.90% | White or off-white solid | 99.89% | White or off-white solid | 99.90% | White or off-white solid | 99.90% | White or off-white solid | 99.90% | White or off-white solid | 99.90% | White or off-white solid | 99.91% | 0.023 mg/mL | 0.025 mg/mL | Appearance [1, 12]: White or off-white solid; Purity [1, 12]: 99.91%; changes in the appearance and purity [1]: no significant changes; solubility compared with the compound of formula (I) [2]: significantly improved |
| COc1cc2nccc(Oc3ccc(NC(=O)c4nn(C(C)C)cc(-c5ccc(F)cc5)c4=O)nc3)c2cc1OC [Crystal form IV, N-(5-((6,7-dimethoxyquinolin-4-yl)oxy)pyridin-2-yl)-5-(4-fluorophenyl)-1-isopropyl-4-oxo-1,4-dihydropyridazine-3-carboxamide] | White or off-white solid | 99.91% | White or off-white solid | 99.91% | White or off-white solid | 99.91% | White or off-white solid | 99.87% | White or off-white solid | 99.92% | White or off-white solid | 99.92% | White or off-white solid | 99.92% | White or off-white solid | 99.91% | White or off-white solid | 99.91% | 0.023 mg/mL | 0.31 mg/mL | Appearance [1, 12]: White or off-white solid; Purity [1, 12]: 99.88%; changes in the appearance and purity [1]: no significant changes; solubility compared with the compound of formula (I) [2]: significantly improved |
| COc1cc2nccc(Oc3ccc(NC(=O)c4nn(C(C)C)cc(-c5ccc(F)cc5)c4=O)nc3)c2cc1OC [Compound of formula (I), N-(5-((6,7-dimethoxyquinolin-4-yl)oxy)pyridin-2-yl)-5-(4-fluorophenyl)-1-isopropyl-4-oxo-1,4-dihydropyridazine-3-carboxamide] |  |  |  |  |  |  |  |  |  |  |  |  |  |  |  |  |  |  | 0.0002 mg/mL | 0.004 mg/mL |  |
| COc1cc2nccc(Oc3ccc(NC(=O)c4nn(C(C)C)cc(-c5ccc(F)cc5)c4=O)nc3)c2cc1OC [Crystal form II, N-(5-((6,7-dimethoxyquinolin-4-yl)oxy)pyridin-2-yl)-5-(4-fluorophenyl)-1-isopropyl-4-oxo-1,4-dihydropyridazine-3-carboxamide] | White or off-white solid | 99.74% | White or off-white solid | 99.74% | White or off-white solid | 99.73% | White or off-white solid | 99.72% | White or off-white solid | 99.74% | White or off-white solid | 99.74% | White or off-white solid | 99.74% | White or off-white solid | 99.75% | White or off-white solid | 99.74% | 0.023 mg/mL | 0.31 mg/mL | AUClast ([3]; 0-96 h, n = 3): 3054.395 µg·h/mL; Cmax ([3]; n = 3): 58.933 µg/mL; λ_z ([3]; n = 3, suspension in 0.5% HPMC): 0.026 h⁻¹; Tmax ([3]; median, n = 3): 6.00 h; tz1/2 ([3]; terminal half-life, n = 3): 27.0 h; Appearance [1, 12]: White or off-white solid; Purity [1, 12]: 99.75%; changes in the appearance and purity [1]: no significant changes; solubility compared with the compound of formula (I) [2]: significantly improved |
